Assay: log P (partition coefficient in 1-octanol and water)
Assay type: physicochemical
Conditions: 1-octanol/water, pH 7.4
From the text: Emulsions of the invention are useful for formulating lipophilic pharmacological agents (LPAs) for in vivo use. Such LPAs include, but are not limited to, vitamins (e.g. vitamins A, D, E and K and their salts/esters, such as α-tocopherol succinate), carotenoids (e.g. β-carotene), fatty acids (e.g. arachidonic acid, ecosapentaenoic acid docosahexaenoic acid), pyrimidines (e.g. 5-hydroxy-4,6-dimethyl-2-(6-phenylhexyl)aminopyrimidine), ansamitocins, angiotensin II receptor antagonists (e.g. candesartan cilexetil), and immunopotentiators (e.g. muramyl dipeptides).
For example, to deliver a 25 μg dose in a typical oil-in-water emulsion would require the agonist to have a squalene solubility of 10 mg/ml, which is about 2.5× higher than can be achieved.

- logP: 7.5
SMILES: Cc1ccc2c(c1)nc(N)c1ncc(CCc3ccc(OCCC(C)C)cc3C)cc12 [compound ‘A’]
